Target: T1, DGAT3 (Chlamydomonas reinhardtii, UniProt A8IMA8)
T1 construct: gene CHLRE_06g310200v5; Trp216, Trp218, Tyr294 (only Trp/Tyr residues); 18 Asp, 22 Glu, 6 Phe, 9 His; chloroplast protein
T1 sequence (A8IMA8 2-346): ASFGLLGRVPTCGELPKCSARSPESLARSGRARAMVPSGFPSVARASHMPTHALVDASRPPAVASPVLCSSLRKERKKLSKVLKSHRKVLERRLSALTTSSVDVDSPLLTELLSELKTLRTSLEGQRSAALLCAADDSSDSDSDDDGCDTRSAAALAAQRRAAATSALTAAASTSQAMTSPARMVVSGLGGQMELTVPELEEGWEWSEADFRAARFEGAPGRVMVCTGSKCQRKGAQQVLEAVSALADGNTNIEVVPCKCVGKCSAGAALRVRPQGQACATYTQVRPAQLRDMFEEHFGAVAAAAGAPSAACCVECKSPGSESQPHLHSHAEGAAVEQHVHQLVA
Experiment: steady-state intrinsic Trp fluorescence anisotropy titration with lipid vesicles
Type: binding
Conditions: partition coefficient (protein between water and lipid phase), not a Kd; anionic POPG vesicles (bilayer, not monomeric lipid); 5 uM protein, 50 mM Tris, 100 mM NaCl, 5 mM TCEP, pH 8; 25 °C

In the case of `CCCCCCCC/C=C\CCCCCCCC(=O)O[C@H](COC(=O)CCCCCCCCCCCCCCC)COP(=O)(O)OCC(O)CO` (mixture of isomers) [POPG, 1-palmitoyl-2-oleoyl-sn-glycero-3-phospho-(1′-rac-glycerol)], the Kp is reported as ~ 40,000.

Reference: paper PMC11852920, “The Diacylglycerol Acyltransferase 3 of Chlamydomonas reinhardtii Is a Disordered Protein Capable of Binding to Lipids Derived from Chloroplasts” (Biomolecules, 2025)
